Data reported in ChEMBL document CHEMBL1134854, “Synthesis and biological evaluation of N-(7-indolyl)-3-pyridinesulfonamide derivatives as potent antitumor agents” (Bioorg Med Chem Lett, 2002).
Values joined by “and” are separate entries in the source; they are usually repeats but may differ in a detail not shown here. Equal entries are not always repeated.

Experiments:
[1] = species on record: Mus musculus; assay: Number of deaths per total number of aminals tested; 0/5; type: functional
[2] = test system: Colon cancer cell line; assay: In vivo activity as average tumor weight on day 22/average tumor weight in control group on day 22*100; drug administered intraperitoneal; type: functional, Homo sapiens
[3] = test system: HCT-116; assay: Inhibitory concentration in vitro against HCT116 human colon cancer cells were determined for 72 h; type: functional, cell-based; details: HCT-116, 72 h
[4] = test system: Colon cancer cell line; assay: In vivo activity as average tumor volume on day 9/average tumor volume on day 1; drug administered intraperitoneal; type: functional, Homo sapiens
[5] = test system: Colon cancer cell line; assay: In vivo activity as average tumor weight on day 22/average tumor weight in control group on day 22*100; drug administered per oral; type: functional, Homo sapiens
[6] = test system: Colon cancer cell line; assay: In vivo activity as average tumor volume on day 9/average tumor volume on day 1; drug administered per oral; type: functional, Homo sapiens
[7] = test system: Colon cancer cell line; assay: In vivo activity as average tumor weight on day 22/average tumor weight in control group on day 22*100; drug administered intra venously; type: functional, Homo sapiens
[8] = test system: Colon cancer cell line; assay: In vivo activity as average tumor volume on day 9/average tumor volume on day 1; drug administered intra venously; type: functional, Homo sapiens
[9] = test system: Colon cancer cell line; assay: In vivo activity as average tumor volume on day 9/average tumor volume on day 1 drug administered per oral; type: functional, Homo sapiens

Row | Structure (SMILES) | Deaths/total [1] [%] | Day 22-T/C [2] | IC50 [3] [nM] | Day 9-RTV [4] | Day 22-T/C [5] [%] | Day 9-RTV [6] | Day 22-T/C [7] [%] | Day 9-RTV [8] | Day 9-RTV [9]
1 | N#Cc1c[nH]c2c(NS(=O)(=O)c3cccnc3)cccc12 | 0 | 65% | 230 | 2.6 | – | – | – | – | –
2 | Nc1ccc(S(=O)(=O)Nc2cccc3c(Cl)c[nH]c23)cn1 | 0 | 26% | 710 | 0.3 | 12 | 0.19 | – | – | –
3 | O=S(=O)(Nc1cccc2c(Cl)c[nH]c12)c1cccnc1 | 0 | 70% | 260 | 3.4 | – | – | – | – | –
4 | Cc1cncc(S(=O)(=O)Nc2cccc3c(Cl)c[nH]c23)c1 | 0 | 82% | 220 | 3.7 | – | – | – | – | –
5 | CC(C)Nc1ccc(S(=O)(=O)Nc2cccc3c(Cl)c[nH]c23)cn1 | 0 | – | 1300 | 0.28 and 0.9 | – | – | – | – | –
6 | CNc1ccc(S(=O)(=O)Nc2cccc3c(Cl)c[nH]c23)cn1 | 0 | 38% | 860 | 0.24 | – | – | – | – | –
7 | NS(=O)(=O)c1ccc(S(=O)(=O)Nc2cccc3c(Cl)c[nH]c23)cn1 | 0 | 12% and 23% | 290 | 0.1 and 0.29 | – | – | 8 | 0.15 | –
8 | N#Cc1c[nH]c2c(NS(=O)(=O)c3ccc(N)nc3)cccc12 | 0 | 35% | 640 | 1.5 | 75 | – | – | – | 2.3
9 | O=S(=O)(Nc1cccc2c(Cl)c[nH]c12)c1ccc(O)nc1 | 0 | 66% | 800 | 3 | – | – | – | – | –
10 | Cc1cncc(S(=O)(=O)Nc2cccc3c(C#N)c[nH]c23)c1 | 0 | 30% | 190 | 0.52 | 106 | 3.4 | – | – | –
11 | O=S(=O)(Nc1cccc2c(Cl)c[nH]c12)c1ccc(NCCO)nc1 | 0 | 89% | 650 | 4.3 | – | – | – | – | –
